According to patent US20250368633A1, “AZEPINE FUSED RING COMPOUND AS RIPK1 INHIBITOR AND USE THEREOF” (ARTIVILA BIOPHARMA, priority 2022, published 2025):

Columns and labels:
U937 cells [1] = experiment: Inhibition rate of compound (1 μM) on necroptosis of U937 cells (TSZ-induced, CellTiter-Glo); type: cell-based; conditions: TSZ (hTNF-α, SM-164, Z-VAD-FMK) 20 hours
Method in brief: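 U937 cells were pretreated 15 min with compound, then necroptosis was triggered with TSZ (Z-VAD-FMK, hTNF-α, SM-164) for 20 h at 37° C. Viability was read as ATP by CellTiter-Glo luminescence, and inhibition (%) was taken relative to no-TSZ and TSZ-only wells.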

RIPK1 kinase = biological target: T1, RIPK1 kinase (Homo sapiens, UniProt Q13546); experiment: In vitro RIPK1 kinase activity assay (ADP-Glo), inhibition by compounds at 1 μM; type: biochemical; conditions: compound 1 μM; ATP 10 μM; MBP substrate 100 μg/mL; read-out: RIPK1 kinase activity inhibition rate range
T1 construct: purchased Promega VA7593
T1 sequence (Q13546 1-671): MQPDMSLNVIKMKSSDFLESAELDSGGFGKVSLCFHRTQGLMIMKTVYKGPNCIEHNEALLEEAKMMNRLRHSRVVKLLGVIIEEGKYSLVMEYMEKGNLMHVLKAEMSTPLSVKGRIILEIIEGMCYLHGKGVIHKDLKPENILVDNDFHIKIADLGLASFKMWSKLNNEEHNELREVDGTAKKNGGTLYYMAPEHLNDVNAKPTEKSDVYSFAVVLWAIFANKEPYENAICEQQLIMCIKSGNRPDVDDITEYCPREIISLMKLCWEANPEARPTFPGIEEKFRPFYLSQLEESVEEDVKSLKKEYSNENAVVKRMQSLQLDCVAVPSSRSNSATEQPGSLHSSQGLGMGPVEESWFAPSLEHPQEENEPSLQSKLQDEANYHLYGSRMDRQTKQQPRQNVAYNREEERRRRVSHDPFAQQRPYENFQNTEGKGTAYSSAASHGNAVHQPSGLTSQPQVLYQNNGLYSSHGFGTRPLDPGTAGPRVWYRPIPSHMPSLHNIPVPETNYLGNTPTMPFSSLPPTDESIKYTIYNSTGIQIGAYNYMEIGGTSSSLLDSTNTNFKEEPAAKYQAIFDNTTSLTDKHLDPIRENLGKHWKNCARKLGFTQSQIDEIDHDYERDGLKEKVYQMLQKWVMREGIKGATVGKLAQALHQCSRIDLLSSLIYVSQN
Method in brief: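 Compound and RIPK1 were preincubated 15 min at room temperature, then reacted 1 h with 10 μM ATP and 100 μg/mL MBP substrate in kinase buffer D. ADP formed was measured by ADP-Glo luminescence and converted to percent inhibition of kinase activity.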

U937 cells [2] = experiment: EC50 of necroptosis inhibition in U937 cells (TSZ-induced, CellTiter-Glo); type: cell-based; conditions: Homo sapiens, U-937; TSZ (hTNF-α, SM-164, Z-VAD-FMK) 20 hours; 10 concentration points; read-out: EC50 intervals of necroptosis inhibition in U937 cells
Method in brief: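 U937 cells pretreated 15 min with compound (10-point, 1:3 series), then necroptosis induced by TSZ (hTNF-α, SM-164, Z-VAD-FMK) for 20 h at 37 °C. Viability measured as ATP by CellTiter-Glo luminescence; inhibition normalised to untreated and TSZ-only wells, EC50 from four-parameter fit.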

inhibition at 1 µM (RIPK1 kinase) [%]	Structure (SMILES)	Inhibition rate range of compounds (1 μM) on U937 cell necroptosis (U937 cells [1])	EC50 (U937 cells [2]) [nM]
25 to 49	C[C@@H](NC(=O)C(=O)N[C@H]1COc2ccc(C#CC3CCN(C)CC3)cc2N(C)C1=O)c1ccccc1 [Example 136, N^1-((S)-5-methyl-7-((1-methylpiperidin-4-yl)ethynyl)-4-oxo-2,3,4,5-tetrahydrobenzo[b][1,4]oxazepin-3-yl)-N^2-((R)-1-phenylethyl)oxalamide]	A (A: ≥90%)	< 100
≥ 75	C[C@@H](NC(=O)C(=O)N[C@H]1COc2ccc(C#CCN3CCNCC3)cc2N(C)C1=O)c1ccccc1 [Example 142, N^1-((S)-5-methyl-4-oxo-7-(3-(piperazin-1-yl)prop-1-yn-1-yl)-2,3,4,5-tetrahydrobenzo[b][1,4]oxazepin-3-yl)-N^2-((R)-1-phenylethyl)oxalamide]	A (A: ≥90%)	< 100
≥ 75	CC(=O)N1CCN(CC#Cc2ccc3c(c2)N(C)C(=O)[C@@H](NC(=O)C(=O)N[C@H](C)c2ccccc2)CO3)CC1 [Example 143, N^1-((S)-7-(3-(4-acetylpiperazin-1-yl)prop-1-yn-1-yl)-5-methyl-4-oxo-2,3,4,5-tetrahydrobenzo[b][1,4]oxazepin-3-yl)-N^2-((R)-1-phenylethyl)oxalamide]	A (A: ≥90%)	< 100
≥ 75	C[C@@H](NC(=O)C(=O)N[C@H]1COc2ccc(C#CC3CN(C)C3)cc2N(C)C1=O)c1ccccc1 [Example 147, N^1-((S)-5-methyl-7-((1-methylazetidin-3-yl)ethynyl)-4-oxo-2,3,4,5-tetrahydrobenzo[b][1,4]oxazepin-3-yl)-N^2-((R)-1-phenylethyl)oxalamide]	A (A: ≥90%)	< 100
≥ 75	C=CC(=O)N1CC(C#Cc2ccc3c(c2)N(C)C(=O)[C@@H](NC(=O)C(=O)N[C@H](C)c2ccccc2)CO3)C1 [Example 149, N^1-((S)-7-((1-acryloylazetidin-3-yl)ethynyl)-5-methyl-4-oxo-2,3,4,5-tetrahydrobenzo[b][1,4]oxazepin-3-yl)-N^2-((R)-1-phenylethyl)oxalamide]	A (A: ≥90%)	< 100
25 to 49	C[C@@H](NC(=O)C(=O)N[C@H]1COc2ccc(C#CC3CN(N=O)C3)cc2N(C)C1=O)c1ccccc1 [Example 151, N^1-((S)-5-methyl-7-((1-nitrosoazetidin-3-yl)ethynyl)-4-oxo-2,3,4,5-tetrahydrobenzo[b][1,4]oxazepin-3-yl)-N^2-((R)-1-phenylethyl)oxalamide]	A (A: ≥90%)	< 100
50 to 74	C[C@@H](Cc1ccccc1)NC(=O)C(=O)N[C@H]1COc2ccc(C#CCCO)cc2N(C)C1=O [Example 152, N^1-((S)-7-(4-hydroxybut-1-yn-1-yl)-5-methyl-4-oxo-2,3,4,5-tetrahydrobenzo[b][1,4]oxazepin-3-yl)-N^2-((S)-1-phenylpropan-2-yl)oxalamide]	A (A: ≥90%)	100 to 500

Further lines, the molecule ahead of its results:

Structure (SMILES)	inhibition at 1 µM (RIPK1 kinase) [%]	Inhibition rate range of compounds (1 μM) on U937 cell necroptosis (U937 cells [1])	EC50 (U937 cells [2]) [nM]
CN1C(=O)[C@@H](NC(=O)C(=O)NCCc2cccc(F)c2)COc2ccccc21 [Example 100, (S)—N^1-(3-fluorophenethyl)-N^2-(5-methyl-4-oxo-2,3,4,5-tetrahydrobenzo[b][1,4]oxazepin-3-yl)oxamalide]	≥ 75	B (B: 50-89%)	100 to 500
CN1C(=O)[C@@H](NC(=O)C(=O)NCc2cc(F)cc(F)c2)COc2ccccc21 [Example 102, (S)—N^1-(3,5-difluorobenzyl)-N^2-(5-methyl-4-oxo-2,3,4,5-tetrahydrobenzo[b][1,4]oxazepin-3-yl)oxalamide]	25 to 49	B (B: 50-89%)	500 to 2000
CN1C(=O)[C@@H](NC(=O)C(=O)NCc2ccccc2)COc2ccc(C#CCN3CCC(O)CC3)cc21 [Example 105, (S)—N^1-benzyl-N^2-(7-(3-(4-hydroxypiperidin-1-yl)prop-1-yn-1-yl)-5-methyl-4-oxo-2,3,4,5-tetrahydrobenzo[b][1,4]oxazepin-3-yl)oxalamide]	≥ 75	A (A: ≥90%)	< 100
Cc1ccccc1CNC(=O)C(=O)N[C@H]1COc2ccc(C#CCN3CCNC(=O)C3)cc2N(C)C1=O [Example 108, (S)—N^1-(5-methyl-4-oxo-7-(3-(3-oxopiperazin-1-yl)prop-1-yn-1-yl)-2,3,4,5-tetrahydrobenzo[b][1, 4]oxazepin-3-yl)-N^2-(2-methylbenzyl)oxalamide]	≥ 75	A (A: ≥90%)	< 100
CN1C(=O)[C@@H](NC(=O)C(=O)NCCc2cccc(F)c2)COc2ccc(C#CC3CCCNC3)cc21 (stereo partly drawn) [Example 116, N^1-(3-fluorophenethyl)-N^2-((3S)-5-methyl-4-oxo-7-(piperidin-3-ylethynyl)-2,3,4,5-tetrahydrobenzo[b][1,4]oxazepin-3-yl)oxalamide]	50 to 74	A (A: ≥90%)	100 to 500
CN1C(=O)[C@@H](NC(=O)C(=O)NCCc2cccc(F)c2)COc2ccc(C#CCN3CCC(=O)C3)cc21 [Example 119, (S)—N^1-(3-fluorophenethyl)-N^2-(5-methyl-4-oxo-7-(3-(3-oxopyrrolidin-1-yl)prop-1-yn-1-yl)-2,3,4,5-tetrahydrobenzo[b][1,4]oxazepin-3-yl)oxalamide]	25 to 49	A (A: ≥90%)	< 100
CN1C(=O)[C@@H](NC(=O)C(=O)NCCc2cccc(F)c2)COc2ccc(C#CCN3CCN(CCO)CC3)cc21 [Example 121, (S)—N^1-(3-fluorophenethyl)-N^2-(7-(3-(4-(2-hydroxyethyl)piperazin-1-yl)prop-1-yn-1-yl)-5-methyl-4-oxo-2,3,4,5-tetrahydrobenzo[b][1,4]oxazepin-3-yl)oxalamide]	≥ 75	B (B: 50-89%)	< 100
C[C@H](NC(=O)C(=O)N[C@H]1COc2ccc(C#CCCO)cc2N(C)C1=O)c1ccccc1 [Example 124, N^1-((S)-7-(4-hydroxybut-1-yn-1-yl)-5-methyl-4-oxo-2,3,4,5-tetrahydrobenzo[b][1,4]oxazepin-3-yl)-N^2-((S)-1-phenylethyl)oxalamide]	50 to 74	A (A: ≥90%)	100 to 500
C[C@@H](NC(=O)C(=O)N[C@H]1COc2ccc(C#CC3COC3)cc2N(C)C1=O)c1ccccc1 [Example 131, (S)—N^1-(5-methyl-7-(oxetan-3-ylethynyl)-4-oxo-2,3,4,5-tetrahydrobenzo[b][1,4]oxazepin-3-yl)-N^2-((R)-1-phenylethyl)oxalamide]	≥ 75	A (A: ≥90%)	< 100
C[C@@H](NC(=O)C(=O)N[C@H]1COc2ccc(C#CCn3ccnc3)cc2N(C)C1=O)c1ccccc1 [Example 134, N^1-((S)-7-(3-(1H-imidazol-1-yl)prop-1-yn-1-yl)-5-methyl-4-oxo-2,3,4,5-tetrahydrobenzo[b][1,4]oxazepin-3-yl)-N^2-((R)-1-phenylethyl)oxalamide]	50 to 74	A (A: ≥90%)	< 100
C[C@@H](NC(=O)C(=O)N[C@H]1COc2ccc(C#CC3CCNCC3)cc2N(C)C1=O)c1ccccc1 [Example 135, N^1-((S)-5-methyl-4-oxo-7-(piperidin-4-ylethynyl)-2,3,4,5-tetrahydrobenzo[b][1,4]oxazepin-3-yl)-N^2-((R)-1-phenylethyl)oxalamide]	25 to 49	A (A: ≥90%)	< 100
